The target of experiment [1] is T1, Platelet-derived growth factor receptor beta (Homo sapiens, UniProt P09619). As to the kind of experiment: Inhibition of recombinant cytoplasmic domain of PDGFRbeta expressed in baculovirus infected Sf21 insect cells assessed as tyrosine phosphorylation treated 30 hrs after infection measured after 48 hrs of post infection by Western blotting.
The target of experiment [2] is T1, Platelet-derived growth factor receptor beta. Put plainly: Inhibition of recombinant cytoplasmic domain of PDGFRbeta expressed in baculovirus infected Sf21 insect cells using 10 fold less poly(Glu4,Tyr1) and [gamma-33P]ATP at 100 uM by SDS-PAGE based scintillation counting.
A short description of experiment [3]: Inhibition of PDGF-dependent PDGFR autophosphorylation in rat A10 cells. The format is cell-based.
Experiment [4] can be described thus: Inhibition of PDGF-dependent PDGFR-mediated cell proliferation in rat A10 cells. The format is cell-based.
For experiment [5], the target named is T1, Platelet-derived growth factor receptor beta. As to the kind of experiment: Inhibition of recombinant cytoplasmic domain of PDGFRbeta expressed in baculovirus infected Sf21 insect cells using poly(Glu4,Tyr1) and [gamma-33P]ATP at 100 uM by SDS-PAGE based scintillation counting.
For experiment [6] the target is unchanged. As to the kind of experiment: Inhibition of recombinant cytoplasmic domain of PDGFRbeta autophosphorylation expressed in baculovirus infected Sf21 insect cells using [gamma-33P]ATP by SDS-PAGE based scintillation counting.

The term IC50 denotes the midpoint of a concentration-inhibition curve.

The structures appear in SMILES notation. Activity calls are given as the source filed them. No cut-off for these calls is given here.

T1 sequence (P09619 whole entry, the tested form may be a part): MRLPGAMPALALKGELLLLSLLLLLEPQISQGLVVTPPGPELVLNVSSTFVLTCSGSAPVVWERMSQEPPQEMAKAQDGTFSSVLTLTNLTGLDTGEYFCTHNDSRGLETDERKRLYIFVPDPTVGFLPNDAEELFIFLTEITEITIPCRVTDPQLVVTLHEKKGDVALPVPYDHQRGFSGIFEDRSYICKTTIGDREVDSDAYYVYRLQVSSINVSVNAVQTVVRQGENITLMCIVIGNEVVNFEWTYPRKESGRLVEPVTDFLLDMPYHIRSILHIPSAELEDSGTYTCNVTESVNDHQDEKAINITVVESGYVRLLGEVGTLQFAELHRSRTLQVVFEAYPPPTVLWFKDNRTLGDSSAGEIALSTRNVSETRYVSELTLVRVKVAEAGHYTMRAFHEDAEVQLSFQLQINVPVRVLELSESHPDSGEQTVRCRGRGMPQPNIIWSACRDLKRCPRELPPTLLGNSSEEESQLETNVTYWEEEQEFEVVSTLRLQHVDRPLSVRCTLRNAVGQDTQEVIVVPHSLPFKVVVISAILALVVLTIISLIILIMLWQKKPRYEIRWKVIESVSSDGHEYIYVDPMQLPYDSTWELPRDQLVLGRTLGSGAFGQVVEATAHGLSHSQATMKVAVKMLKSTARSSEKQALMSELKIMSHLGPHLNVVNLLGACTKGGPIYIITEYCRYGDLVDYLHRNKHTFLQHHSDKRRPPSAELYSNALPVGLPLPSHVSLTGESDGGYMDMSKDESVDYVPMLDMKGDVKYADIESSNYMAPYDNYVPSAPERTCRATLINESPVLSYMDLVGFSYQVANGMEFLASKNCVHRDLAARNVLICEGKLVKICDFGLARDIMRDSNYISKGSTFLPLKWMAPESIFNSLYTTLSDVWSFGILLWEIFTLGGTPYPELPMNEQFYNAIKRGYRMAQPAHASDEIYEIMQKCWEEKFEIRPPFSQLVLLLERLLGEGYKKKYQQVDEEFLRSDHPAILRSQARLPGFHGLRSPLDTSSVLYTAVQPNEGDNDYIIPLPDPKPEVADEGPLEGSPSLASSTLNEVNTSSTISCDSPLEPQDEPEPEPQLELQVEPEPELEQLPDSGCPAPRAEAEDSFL

Regarding `COc1ccc2[nH]c3c4[nH]c5ccc(OC)cc5c4c4c(c3c2c1)C(=O)NC4=O` [GW296115X], the 50% inhibitory concentration (IC50) in experiment [1] was 2000 nM; in experiment [3] it was 15 nM; in experiment [4], 10 nM; in experiment [6], 1800 nM. Further, the inhibition result in experiment [1] and in experiment [6] was “Dose-dependent effect” each time. The inhibition entry in experiment [2] and in experiment [5] was “inactive” throughout.

For the origin of these results see ChEMBL document CHEMBL1955835, “Effects of the indolocarbazole 3744W on the tyrosine kinase activity of the cytoplasmic domain of the platelet-derived growth factor beta-receptor” (Cell Signal, 1999).
